For assay [1], the target named is T1, ErGPCR-2 (Helicoverpa armigera, UniProt A0A0U1ZWU3).
T1 construct: ErGPCR-2-GFP-His, 7TM region and added signal peptide (GenBank AKA95280.1), isolated from Sf9 cells
T1 sequence (A0A0U1ZWU3 430-703 limits assumed): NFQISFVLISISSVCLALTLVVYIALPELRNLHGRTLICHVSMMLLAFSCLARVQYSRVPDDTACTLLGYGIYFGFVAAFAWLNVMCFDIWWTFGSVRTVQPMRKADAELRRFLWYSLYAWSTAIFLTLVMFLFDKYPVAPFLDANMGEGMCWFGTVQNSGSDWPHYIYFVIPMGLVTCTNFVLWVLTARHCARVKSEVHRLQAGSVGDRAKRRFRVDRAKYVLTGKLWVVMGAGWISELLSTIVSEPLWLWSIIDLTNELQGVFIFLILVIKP
As to the kind of experiment: saturation binding with isolated receptor, […] enzyme immunoassay.

Assay [2] concerns the target T2, dopamine receptor DopEcR (Helicoverpa armigera, UniProt A0A386QW71, T113A/W160A/Y109A/Y68A).
T2 construct: DopEcR-M-GFP-His, isolated from Sf9 cells
As to the kind of experiment: saturation binding with isolated mutant receptor, […] enzyme immunoassay (lower Bmax).

The target of assay [3] is T3, dopamine receptor DopEcR (Helicoverpa armigera, UniProt A0A386QW71).
T3 construct: DopEcR-GFP-His (GenBank MG596302), isolated from Sf9 cells
T3 sequence (A0A386QW71 1-343): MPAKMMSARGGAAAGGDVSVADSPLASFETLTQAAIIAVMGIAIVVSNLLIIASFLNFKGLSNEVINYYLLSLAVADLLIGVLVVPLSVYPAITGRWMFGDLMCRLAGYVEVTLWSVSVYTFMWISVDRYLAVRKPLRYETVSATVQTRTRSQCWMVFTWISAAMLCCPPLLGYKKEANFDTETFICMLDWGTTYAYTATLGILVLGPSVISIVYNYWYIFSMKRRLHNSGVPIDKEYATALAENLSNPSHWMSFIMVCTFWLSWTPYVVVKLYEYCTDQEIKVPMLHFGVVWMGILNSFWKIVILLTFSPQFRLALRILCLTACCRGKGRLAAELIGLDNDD
Briefly: saturation binding with isolated receptor, […] enzyme immunoassay; also displacement of DA (Ki […]).

In assay [4] the target is dopamine receptor DopEcR (Helicoverpa armigera, UniProt A0A386QW71). As to the kind of experiment: biochemical.

This passage reports Kd results from publication PMC6693746 (PLoS Genetics, 2019).

SMILES strings stand for the structures.

On to `CC(C)(O)CC[C@@H](O)[C@](C)(O)[C@H]1CC[C@@]2(O)C3=CC(=O)[C@@H]4C[C@@H](O)[C@@H](O)C[C@]4(C)[C@H]3CC[C@]12C` [20E, 20-hydroxyecdysone], for which the Kd in assay [1] came out at 23.3 ± 3.3 nM; in assay [2] it was 20.5 ± 1.98 nM; in assay [3], 18 ± 3 nM.

As for `NCCc1ccc(O)c(O)c1` [DA, dopamine], in assay [4], binding was put at a Kd of 448 ± 101 nM.

Broadly, the Kd is the constant that tells how readily two partners part at equilibrium. A lower Kd goes with tighter binding.
